According to patent US20230075521A1, “RESVERATROL PHARMACEUTICAL COMPOSITIONS AND METHODS OF USE THEREOF” (priority 2021, published 2023):
Where “and” joins values, the source holds several entries; their conditions need not be identical. Equal entries are not always repeated.

Assays:
[1] = test system: Human Aβ1-42, Aβ1-40, phosphorylated tau, total tau; assay: ELISA of AD pathological hallmarks in brain tissue; type: in vivo, 3×Tg-AD mouse; conditions: 50 mg/kg oral, 9 months
Experimental: At study endpoints (age 15 months for sub-chronic study, age 13 months for long-term study), mice were anaesthetized with isoflurane and blood was collected by transcardial puncture. Blood was stored on ice and then centrifuged at 10,000×g at 4° C. for 10 min to collect serum and stored at −80° C. until use. The brain was then extracted and quickly dissected on ice to collect prefrontal cortex (PFC), hippocampus, entorhinal cortex (ERC), and cerebellum, which were immediately frozen in liquid nitrogen. The samples were stored at −80° C. until processed for RNA or protein extraction. […]
Protein lysates were extracted by sonicating tissue in M-PER Mammalian Protein Extraction Reagent (Thermo Fisher Scientific) supplemented with protease inhibitor (Thermo Fisher Scientific) and phosphatase inhibitor (Thermo Fisher Scientific). Total protein was quantified using Pierce BCA Protein Assay Kit (Thermo Fisher Scientific) and read at 562 nm using EnVision (Perkin Elmer).
Human Aβ1-42, Aβ1-40, phosphorylated tau Ser 396, phosphorylated tau Thr181, and total tau were measured in brain tissue by enzyme linked immuno-sorbent assay (ELISA; Invitrogen by Thermo) and normalized to total protein. All the kits were used as per the manufacturer's instructions and measured using the EnVision® multimode plate reader (Perkin Elmer). […]

[2] = test system: serum cytokines and chemokines; assay: Serum cytokine and chemokine levels (48-Plex ProcartaPlex, Luminex); type: in vivo, 3×Tg-AD mouse; conditions: 50 mg/kg oral, 9 months
Experimental: At study endpoints (age 15 months for sub-chronic study, age 13 months for long-term study), mice were anaesthetized with isoflurane and blood was collected by transcardial puncture. Blood was stored on ice and then centrifuged at 10,000×g at 4° C. for 10 min to collect serum and stored at −80° C. until use. The brain was then extracted and quickly dissected on ice to collect prefrontal cortex (PFC), hippocampus, entorhinal cortex (ERC), and cerebellum, which were immediately frozen in liquid nitrogen. The samples were stored at −80° C. until processed for RNA or protein extraction. For each mouse, brain regions from one hemisphere were used for RNA preparation and qPCR and sections from the other hemisphere were used for protein work including ELISAs.
Human Aβ1-42, Aβ1-40, phosphorylated tau Ser 396, phosphorylated tau Thr181, and total tau were measured in brain tissue by enzyme linked immuno-sorbent assay (ELISA; Invitrogen by Thermo) and normalized to total protein. All the kits were used as per the manufacturer's instructions and measured using the EnVision® multimode plate reader (Perkin Elmer). Serum and brain tissue protein extracts were analyzed for cytokine and chemokine levels using the Immune Monitoring 48-Plex Mouse ProcartaPlex™ Panel (Invitrogen by Thermo) according to manufacturer's standard protocol and read using Luminex xMAP (multi-analyte profiling) technology.

Oc1ccc(/C=C/c2cc(O)cc(O)c2)cc1 [RSV, (trans-)resveratrol]
Phospho-tau at Ser396 in PFC, RSV-treated vs vehicle ([1]; male 3×Tg-AD mice): significantly different
Total tau in hippocampus, decrease vs vehicle ([1]; males and females analyzed together): 170.5±44.83
BAFF serum level, change vs vehicle ([2]; female 3×Tg-AD mice): 22.01 pg/mL
G-CSF serum level, change vs vehicle ([2]; female 3×Tg-AD mice): -0.68 pg/mL
IFNg serum level, change vs vehicle ([2]; female 3×Tg-AD mice): 1.06 pg/mL
IL-1b serum level, change vs vehicle ([2]; female 3×Tg-AD mice): 0.80 pg/mL
IL-2RA serum level, change vs vehicle ([2]; female 3×Tg-AD mice): -71.13 pg/mL
IL-3 serum level, change vs vehicle ([2]; female 3×Tg-AD mice): 0.15 pg/mL
IL-5 serum level, change vs vehicle ([2]; female 3×Tg-AD mice): 0.05 pg/mL
IL-6 serum level, change vs vehicle ([2]; female 3×Tg-AD mice): -10.05 pg/mL
IL-9 serum level, change vs vehicle ([2]; female 3×Tg-AD mice): 13.83 pg/mL
IL-10 serum level, change vs vehicle ([2]; female 3×Tg-AD mice): -8.54 pg/mL
IL-12p70 serum level, change vs vehicle ([2]; female 3×Tg-AD mice): 0.15 pg/mL
IL-13 serum level, change vs vehicle ([2]; female 3×Tg-AD mice): 15.44 pg/mL
IL-15/IL-15R serum level, change vs vehicle ([2]; female 3×Tg-AD mice): 0.51 pg/mL
IL-17A serum level, change vs vehicle ([2]; female 3×Tg-AD mice): -5.14 pg/mL
IL-18 serum level, change vs vehicle ([2]; female 3×Tg-AD mice): -74.10 pg/mL
IL-19 serum level, change vs vehicle ([2]; female 3×Tg-AD mice): -17.31 pg/mL
IL-22 serum level, change vs vehicle ([2]; female 3×Tg-AD mice): -2.84 pg/mL
IL-23 serum level, change vs vehicle ([2]; female 3×Tg-AD mice): 16.41 pg/mL
IL-25/IL-17 serum level, change vs vehicle ([2]; female 3×Tg-AD mice): -12.62 pg/mL
IL-27 serum level, change vs vehicle ([2]; female 3×Tg-AD mice): 0.92 pg/mL
IL-28 serum level, change vs vehicle ([2]; female 3×Tg-AD mice): 5.70 pg/mL
IL-33 serum level, change vs vehicle ([2]; female 3×Tg-AD mice): -4.36 pg/mL
IP-10 serum level, change vs vehicle ([2]; female 3×Tg-AD mice): -9.75 pg/mL
KC serum level, change vs vehicle ([2]; female 3×Tg-AD mice): -41.09 pg/mL
LIF serum level, change vs vehicle ([2]; female 3×Tg-AD mice): -1.86 pg/mL
LIX serum level, change vs vehicle ([2]; female 3×Tg-AD mice): 1701.00 pg/mL
MCP-1 serum level, change vs vehicle ([2]; female 3×Tg-AD mice): -43.64 pg/mL
MCP-3 serum level, change vs vehicle ([2]; female 3×Tg-AD mice): -212.20 pg/mL
MIP-1a serum level, change vs vehicle ([2]; female 3×Tg-AD mice): 3.71 pg/mL
MIP-1b serum level, change vs vehicle ([2]; female 3×Tg-AD mice): 0.17 pg/mL
MIP-2 serum level, change vs vehicle ([2]; female 3×Tg-AD mice): -7.86 pg/mL
RANTES serum level, change vs vehicle ([2]; female 3×Tg-AD mice): -9.09 pg/mL
TNFa serum level, change vs vehicle ([2]; female 3×Tg-AD mice): -2.67 pg/mL
sRANKL serum level, change vs vehicle ([2]; female 3×Tg-AD mice): -0.58 pg/mL
Eotaxin serum level, change vs vehicle ([2]; female 3×Tg-AD mice, 50 mg/kg): -3162 ± 1165 pg/mL and -3162.00 pg/mL
Leptin serum level, change vs vehicle ([2]; female 3×Tg-AD mice, 50 mg/kg): -33707 ± 9226 pg/mL and -33707.0 pg/mL
BAFF serum level, change vs vehicle ([2]; male 3×Tg-AD mice): -44.06 pg/mL
Eotaxin serum level, change vs vehicle ([2]; male 3×Tg-AD mice): 943.10 pg/mL
G-CSF serum level, change vs vehicle ([2]; male 3×Tg-AD mice): -5.14 pg/mL
IFNg serum level, change vs vehicle ([2]; male 3×Tg-AD mice): -0.66 pg/mL
IL-1b serum level, change vs vehicle ([2]; male 3×Tg-AD mice): -5.86 pg/mL
IL-2RA serum level, change vs vehicle ([2]; male 3×Tg-AD mice): -21.16 pg/mL
IL-5 serum level, change vs vehicle ([2]; male 3×Tg-AD mice): 8.72 pg/mL
IL-6 serum level, change vs vehicle ([2]; male 3×Tg-AD mice): -60.32 pg/mL
IL-9 serum level, change vs vehicle ([2]; male 3×Tg-AD mice): -9.66 pg/mL
IL-10 serum level, change vs vehicle ([2]; male 3×Tg-AD mice): 2.25 pg/mL
IL-12p70 serum level, change vs vehicle ([2]; male 3×Tg-AD mice): -13.72 pg/mL
IL-13 serum level, change vs vehicle ([2]; male 3×Tg-AD mice): -72.28 pg/mL
IL-15/IL-15R serum level, change vs vehicle ([2]; male 3×Tg-AD mice): -11.93 pg/mL
IL-17A serum level, change vs vehicle ([2]; male 3×Tg-AD mice): -6.64 pg/mL
IL-18 serum level, change vs vehicle ([2]; male 3×Tg-AD mice): -415.10 pg/mL
IL-19 serum level, change vs vehicle ([2]; male 3×Tg-AD mice): -23.06 pg/mL
IL-23 serum level, change vs vehicle ([2]; male 3×Tg-AD mice): -12.74 pg/mL
IL-25/IL-17 serum level, change vs vehicle ([2]; male 3×Tg-AD mice): -235.80 pg/mL
IL-28 serum level, change vs vehicle ([2]; male 3×Tg-AD mice): -44.41 pg/mL
IL-33 serum level, change vs vehicle ([2]; male 3×Tg-AD mice): 107.60 pg/mL
IP-10 serum level, change vs vehicle ([2]; male 3×Tg-AD mice): -47.95 pg/mL
KC serum level, change vs vehicle ([2]; male 3×Tg-AD mice): -90.17 pg/mL
LIF serum level, change vs vehicle ([2]; male 3×Tg-AD mice): -8.06 pg/mL
LIX serum level, change vs vehicle ([2]; male 3×Tg-AD mice): -6715.00 pg/mL
Leptin serum level, change vs vehicle ([2]; male 3×Tg-AD mice): -1768.00 pg/mL
MIP-1a serum level, change vs vehicle ([2]; male 3×Tg-AD mice): 4.01 pg/mL
MIP-1b serum level, change vs vehicle ([2]; male 3×Tg-AD mice): -6.40 pg/mL
RANTES serum level, change vs vehicle ([2]; male 3×Tg-AD mice): -24.75 pg/mL
TNFa serum level, change vs vehicle ([2]; male 3×Tg-AD mice): -0.08 pg/mL
VEGF-A serum level, change vs vehicle ([2]; male 3×Tg-AD mice): -17.68 pg/mL
sRANKL serum level, change vs vehicle ([2]; male 3×Tg-AD mice): 4.06 pg/mL
IL-3 serum level, change vs vehicle ([2]; male 3×Tg-AD mice, 50 mg/kg): -1.53 ± 0.26 pg/mL and -1.53 pg/mL
IL-22 serum level, change vs vehicle ([2]; male 3×Tg-AD mice, 50 mg/kg): -23.37 ± 5.2 pg/mL and -23.37 pg/mL
MIP-2 serum level, change vs vehicle ([2]; male 3×Tg-AD mice, 50 mg/kg): -16.16 ± 5.95 pg/mL and -16.16 pg/mL
